Molecular target: recombinant human prostanoid EP2 receptor (Homo sapiens (Human), UniProt P43116)
Experiment: Human prostanoid EP2 receptor cellular functional assay (cAMP, HTRF)
Type: cell-based
Conditions: for EC50: CHO cells expressing recombinant human EP2, cAMP by HTRF, 30 min, 37° C., read-out: In vitro functional assay EP2 (h) EC50; for In vitro functional assay EP2 (h) % response: percent of control specific agonist response (10 μM PGE2)
Description: Test 1.2: Human Prostanoid EP2 Receptor Cellular Functional Assay
Human CHO cells expressing the recombinant human prostanoid EP2 receptor were suspended in assay medium (HBSS buffer (Invitrogen) containing 20 mM HEPES (pH7.4) and 500 μM isobutyl-methylxanthine IBMX) and plated out to yield approximately 1×10^4 cells/well in a 96-well. Following this, cells were incubated with agonists for 30 min in the presence of the test compounds. For stimulated control measurements, separate assay wells contain 10 μM PGE2 (control specific agonist). All incubations were carried out at 37° C. in a 5% CO2 atmosphere. Following incubation, the amount of cAMP in each well was determined by HTRF method. The cells are lysed and the fluorescence acceptor (D2-labeled cAMP) and fluorescence donor (anti-cAMP antibody labeled with europium cryptate) are added. After 60 min at room temperature, the fluorescence transfer is measured at λ ex=337 nm and λ em=620 and 665 nm using a microplate reader (Rubystar, BMG).
The cAMP concentration is determined by dividing the signal measured at 665 nm by that measured at 620 nm (ratio).
The standard reference agonist PGE2 was tested at several concentrations to generate a concentration-response curve to determined EC50.
Analysis and Expression of Results
The results are expressed as a percent of control specific agonist response ((measured specific response/control specific agonist response)×100) obtained in the presence of the test compounds. The EC50 values (concentration producing a half-maximal specific response) were determined by non-linear regression analysis of the concentration-response curves generated with mean replicate values using Hill equation curve fitting (Y=D+[(A−D)/(1+(C/C50)nH)], where Y=specific response, D=minimum specific response, A=maximum specific response, C=compound concentration, and C50=EC50 and nH=slope factor). This analysis was performed using a software developed at Cerep (Hill software) and validated by comparison with data generated by the commercial software SigmaPlot® 4.0 for Windows® (© 1997 by SPSS Inc.).

recombinant human prostanoid EP2 receptor, sequence (P43116 whole entry): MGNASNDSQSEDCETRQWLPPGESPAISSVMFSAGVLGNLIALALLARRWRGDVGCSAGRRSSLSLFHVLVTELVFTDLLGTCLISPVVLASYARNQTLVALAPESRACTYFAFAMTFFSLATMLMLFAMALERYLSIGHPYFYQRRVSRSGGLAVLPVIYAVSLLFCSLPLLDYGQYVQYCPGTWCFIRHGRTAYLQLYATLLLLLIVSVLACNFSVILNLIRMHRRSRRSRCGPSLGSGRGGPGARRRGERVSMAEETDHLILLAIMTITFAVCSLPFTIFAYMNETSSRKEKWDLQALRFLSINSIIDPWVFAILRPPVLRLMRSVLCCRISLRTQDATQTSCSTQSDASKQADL

With Cc1cc(-c2cccc(F)c2)cc(CNc2c(F)ccc(OCC(=O)O)c2F)c1C [I(v), 2-[2,4-Difluoro-3-[[5-(3-fluorophenyl)-2,3-dimethyl-phenyl]methylamino]phenoxy]acetic acid] the EC50 was 2 nM and the “In vitro functional assay EP2 (h) % response” value was 85%.
Cc1c(OCC(=O)O)ccc(F)c1NCc1cc(-c2cccc(F)c2)ccc1F [I(m), 2-[4-Fluoro-3-[[2-fluoro-5-(3-fluorophenyl)phenyl]methylamino]-2-methyl-phenoxy]acetic acid] was tested, and the EC50 was 10 nM and the “In vitro functional assay EP2 (h) % response” value was 89%.
For Cc1ccc(-c2cccc(F)c2)cc1CNc1c(F)ccc(OCC(=O)O)c1F [I(c), 2-[2,4-Difluoro-3-[[5-(3-fluorophenyl)-2-methyl-phenyl]methylamino]phenoxy]acetic acid], the EC50 was 69 nM and the “In vitro functional assay EP2 (h) % response” value was 66%.
For Cc1ccc(OCC(=O)O)c(C)c1NCc1cc(O)cc(-c2cccc(F)c2)c1 [I(ao), 2-[3-[[3-(3-fluorophenyl)-5-hydroxy-phenyl]methylamino]-2,4-dimethyl-phenoxy]acetic acid], the EC50 was 1 nM and the “In vitro functional assay EP2 (h) % response” value was 76%.
With Cc1cc(CNc2c(C)ccc(OCC(=O)O)c2C)c(F)c(-c2cccc(F)c2)c1 [I(am), 2-[3-[[2-Fluoro-3-(3-fluorophenyl)-5-methyl-phenyl]methylamino]-2,4-dimethyl-phenoxy]acetic acid] the EC50 was 3 nM and the “In vitro functional assay EP2 (h) % response” value was 87%.
For O=C(O)COc1ccc(F)c(NCc2cc(O)cc(-c3cccc(F)c3)c2F)c1F [I(f), 2-[2,4-Difluoro-3-[[2-fluoro-3-(3-fluorophenyl)-5-hydroxy-phenyl]methylamino]phenoxy]acetic acid], the EC50 was 160 nM and the “In vitro functional assay EP2 (h) % response” value was 61%.
Cc1cc(CNc2c(F)ccc(OCC(=O)O)c2F)cc(-c2cccc(F)c2)c1 [I(d), 2-[2,4-Difluoro-3-[[3-(3-fluorophenyl)-5-methyl-phenyl]methylamino]phenoxy]acetic acid] was tested, and the EC50 was 35 nM and the “In vitro functional assay EP2 (h) % response” value was 74%.
In the case of Cc1cc(CNc2c(F)ccc(OCC(=O)O)c2C)c(F)c(-c2cccc(F)c2)c1 [I(ai), 2-[4-fluoro-3-[[2-fluoro-3-(3-fluorophenyl)-5-methyl-phenyl]methylamino]-2-methyl-phenoxy]acetic acid], the EC50 is reported as 35 nM and the “In vitro functional assay EP2 (h) % response” value is reported as 80%.
In the case of N#Cc1c(OCC(=O)O)ccc(F)c1NCc1cc(-c2cccc(F)c2)ccc1F [I(an), 2-[2-cyano-4-fluoro-3-[[2-fluoro-5-(3-fluorophenyl)phenyl]methylamino]phenoxy]acetic acid], the EC50 is reported as 9 nM and the “In vitro functional assay EP2 (h) % response” value is reported as 91%.
For Cc1cc(-c2cc(F)cc(F)c2)cc(CNc2c(F)ccc(OCC(=O)O)c2F)c1C [I(ar), 2-[3-[[5-(3,5-difluorophenyl)-2,3-dimethyl-phenyl]methylamino]-2,4-difluoro-phenoxy]acetic acid], the EC50 was 8 nM and the “In vitro functional assay EP2 (h) % response” value was 130%.
O=C(O)COc1ccc(F)c(NCc2cc(F)cc(-c3cccc(F)c3)c2)c1F [I(n), 2-[2,4-Difluoro-3-[[3-fluoro-5-(3-fluorophenyl)phenyl]methylamino]phenoxy]acetic acid] was tested, and the EC50 was 52 nM and the “In vitro functional assay EP2 (h) % response” value was 86%.
In the case of Cc1cc(-c2cccc(F)c2)cc(CNc2c(F)ccc(OCC(=O)O)c2F)c1O [I(u), 2-[2,4-Difluoro-3-[[5-(3-fluorophenyl)-2-hydroxy-3-methyl-phenyl]methylamino]phenoxy]acetic acid], the EC50 is reported as 9 nM and the “In vitro functional assay EP2 (h) % response” value is reported as 78%.
O=C(O)COc1ccc(F)c(NCc2cc(-c3cccc(F)c3)ccc2F)c1Cl [I(o), 2-[2-Chloro-4-fluoro-3-[[2-fluoro-5-(3-fluorophenyl)phenyl]methylamino]phenoxy]acetic acid] was tested, and the EC50 was 34 nM and the “In vitro functional assay EP2 (h) % response” value was 74%.
For O=C(O)COc1ccc(F)c(NCc2cccc(-c3cccc(F)c3)c2)c1F [I(e), 2-[2,4-Difluoro-3-[[3-(3-fluorophenyl)phenyl]methylamino]phenoxy]acetic acid], the EC50 was 160 nM and the “In vitro functional assay EP2 (h) % response” value was 65%.
With O=C(O)COc1ccc(F)c(NCc2cc(O)cc(-c3cccc(F)c3)c2)c1F [I(p), 2-[2,4-Difluoro-3-[[3-(3-fluorophenyl)-5-hydroxy-phenyl]methylamino]phenoxy]acetic acid] the EC50 was 17 nM and the “In vitro functional assay EP2 (h) % response” value was 70%.
In the case of O=C(O)COc1cccc(CN(Cc2ccc(-n3cccn3)cc2)S(=O)(=O)c2cccnc2)c1 [CP-544326, reference compound], the EC50 is reported as 46 nM and the “In vitro functional assay EP2 (h) % response” value is reported as 72%.
For Cc1cc(CNc2c(F)ccc(OCC(=O)O)c2C)cc(-c2cccc(F)c2)c1 [I(ae), 2-[4-fluoro-3-[[3-(3-fluorophenyl)-5-methyl-phenyl]methylamino]-2-methyl-phenoxy]acetic acid], the EC50 was 3 nM and the “In vitro functional assay EP2 (h) % response” value was 83%.
Cc1cc(CNc2c(C)ccc(OCC(=O)O)c2C)cc(-c2cccc(F)c2)c1 [I(aj), 2-[3-[[3-(3-fluorophenyl)-5-methyl-phenyl]methylamino]-2,4-dimethyl-phenoxy]acetic acid] was tested, and the EC50 was 7 nM and the “In vitro functional assay EP2 (h) % response” value was 79%.
In the case of N#Cc1cc(CNc2c(F)ccc(OCC(=O)O)c2F)cc(-c2cccc(F)c2)c1 [I(x), 2-[3-[[3-cyano-5-(3-fluorophenyl)phenyl]methylamino]-2,4-difluoro-phenoxy]acetic acid], the EC50 is reported as 27 nM and the “In vitro functional assay EP2 (h) % response” value is reported as 45%.
In the case of Cc1cc(-c2ccccc2)cc(CNc2c(F)ccc(OCC(=O)O)c2F)c1C [I(au), 2-[3-[(2,3-dimethyl-5-phenyl-phenyl)methylamino]-2,4-difluoro-phenoxy]acetic acid], the EC50 is reported as 15 nM and the “In vitro functional assay EP2 (h) % response” value is reported as 81%.
In the case of Cc1cc(CNc2c(F)ccc(OCC(=O)O)c2F)c(F)c(-c2cccc(F)c2)c1 [I(g), 2-[2,4-difluoro-3-[[2-fluoro-3-(3-fluorophenyl)-5-methyl-phenyl]methylamino]phenoxy]acetic acid], the EC50 is reported as 55 nM and the “In vitro functional assay EP2 (h) % response” value is reported as 80%.
With NC(=O)c1cc(CNc2c(F)ccc(OCC(=O)O)c2F)cc(-c2cccc(F)c2)c1 [I(z), 2-[3-[[3-carbamoyl-5-(3-fluorophenyl)phenyl]methylamino]-2,4-difluoro-phenoxy]acetic acid] the EC50 was 4 nM and the “In vitro functional assay EP2 (h) % response” value was 53%.
For Cc1ccc(OCC(=O)O)c(C)c1NCc1cc(-c2cccc(F)c2)ccc1F [I(j), 2-[3-[[2-Fluoro-5-(3-fluorophenyl)phenyl]methylamino]-2,4-dimethyl-phenoxy]acetic acid], the EC50 was 26 nM and the “In vitro functional assay EP2 (h) % response” value was 80%.
For COc1c(C)cc(-c2cccc(F)c2)cc1CNc1c(F)ccc(OCC(=O)O)c1C [I(af), 2-[4-fluoro-3-[[5-(3-fluorophenyl)-2-methoxy-3-methyl-phenyl]methylamino]-2-methyl-phenoxy]acetic acid], the EC50 was 5 nM and the “In vitro functional assay EP2 (h) % response” value was 70%.
With CC(Nc1c(F)ccc(OCC(=O)O)c1F)c1cc(-c2cccc(F)c2)ccc1F (racemic) [I(as), (R,S)-2-[2,4-difluoro-3-[1-[2-fluoro-5-(3-fluorophenyl)phenyl]ethylamino]phenoxy]acetic acid] the EC50 was 11 nM and the “In vitro functional assay EP2 (h) % response” value was 107%.

— patent publication US9249085B2, “Aniline derivatives, their preparation and their therapeutic application” (FOVEA PHARMACEUTICALS, priority 2011, dated 2016)
